The source of these data is patent publication US20210267193A1, “Pest Repellent Agent” (Kao Corporation, priority 2018, published 2021).

The first data set relates to Aedes albopictus. In words: Mosquito landing rate using human forearm. Format: in vivo. Conditions: 4 cm x 5 cm test site, 5 mg (0.25 mg/cm^2), about 50 mosquitoes, 28° C., 70% RH. On the procedure:
(4) Evaluation of Mosquito Landing Rate Using Human Forearm
The repellent effect of the pest repellent on human forearm was evaluated in terms of a mosquito landing rate.
(4-1) Preparation of Aedes albopictus
Female adults of Aedes albopictus were purchased from Mostop Inc. The adults were bred in a room at 28° C. and a relative humidity of 70% RH with a 12-hour light/dark cycle after delivery and appropriately used for tests. During breeding of mosquitoes, a 3% by mass sucrose aqueous solution was given as a feed. In order to facilitate the induction to the forearm, before the test, the food was changed to water, and the mosquitoes were fasted for 12 hours or more.
(4-2) Calculation of Landing Rate
The forearm was washed with a body wash (Biore u, manufactured by Kao Corporation), and water droplets were wiped off with a paper towel, followed by performing acclimatization for 10 minutes at room temperature. Thereafter, a rubber glove (Singer Latex Long Glove M, manufactured by Utsunomiya Seisakusho Co., Ltd.) covering up to the elbow was put on the arm to be measured. The mosquito cannot bite through the rubber glove.
The rubber glove was cut off with scissors to expose a test site of 4 cm×5 cm toward the inside of the forearm. The area around the opening of the rubber glove is reinforced with a pressure-sensitive adhesive tape. Then, the resultant was moved to a constant temperature and constant humidity room (28° C., relative humidity: 70%), followed by performing acclimatization for 3 minutes. 5 mg (0.25 mg/cm^2) of the repellent was applied on the test site with a finger wearing the rubber glove, and immediately thereafter, the arm was inserted into a test box (Bug Dorm-1, manufactured by MegaView Science Co., Ltd., 30 cm×30 cm×30 cm). Approximately 50 test mosquitoes are released in this test box. The mosquito stays on the skin and then begins to bite by placing a needle on the skin. In order to prevent blood sucking into the forearm, mosquitoes are removed by using an inset suction pipe passed through a hole into which the arm is inserted just before starting biting. The measurement was terminated at the time when the total number of mosquitoes that succeeded in landing (reached just before the start of biting) and mosquitoes that touched the skin but escaped without landing reached 15. […] The mosquito landing rate was calculated by the following equation. […]
Each of the liquid oily components shown in Table 4 was applied onto the test site of the human forearm at a coverage of 0.25 mg/cm^2, and the mosquito landing rate on the applied surface of the forearm was calculated.
Turning to `CCCCCCCCCCCCCC(=O)OC(C)C` [Ester oil b5, Isopropyl myristate], the “Landing rate on exposed area (at 0.25 mg/cm^2)” value (“Landing rate on exposed area” below) turned out to be 24%.

Consider `CCCCCCCCCCCCCCCCOC(C)CC(C)C` (centres unmarked) [Ether oil c1, Cetyl-1,3-dimethylbutyl ether], for which the “Landing rate on exposed area” value is 15%.

`CC(C)=CCC/C(C)=C/CC/C(C)=C/CC/C=C(\C)CC/C=C(\C)CCC=C(C)C` [Hydrocarbon oil d3, Squalene]: the “Landing rate on exposed area” value is recorded as 12%.

With `OCC(O)CO` [Polyhydric alcohol fx2, Glycerin, reference compound], the “Landing rate on exposed area” value worked out at 75%.

Tested on in a further data set: not listed separately
Description: Measurement of viscosity (B-type rotational viscometer). Format: physicochemical. Conditions: rotor M2 (12 or 6 rpm) or L adapter (30 rpm) as listed per sample. On the procedure: (2) Measurement of Viscosity
Viscometer TVB-10, manufactured by […] Co., Ltd. was used as a B-type rotational viscometer according to JIS K7117-1:1999. As to components to be measured, a viscosity value greatly differs for every sample, and therefore, it is difficult to accurately measure all components under a single measurement condition. Then, the measurement was performed using two types of rotors. The viscosity was first measured at a rotational speed of 12 rpm using a rotor M2 in an environment at 23° C. At this time, the component having a viscosity of 2,500 mPa·s or more was again measured at a rotational speed of 6 rpm, to obtain the viscosity value.
On the other hand, the component having a viscosity of 20 mPa·s or less was again measured at a rotational speed of 30 rpm using an L adapter that is a rotor for low viscosity in an environment of 23° C., to obtain the viscosity value.
For `CC(C)CCCCCCOC(=O)CCCCCC(C)C` [Ester oil b1, Isononyl isononanoate], the “Viscosity (at 23° C.)” value was found to be 6 mPa · s.

For `CC(C)CCCCCCCCCCOC(=O)CCCCCC(C)C` [Ester oil b2, Isotridecyl isononanoate], the “Viscosity (at 23° C.)” value is 11 mPa · s.

For `CCCCCCCCCCCCCCCC(=O)OC(C)C` [Ester oil b4, Isopropyl palmitate], the “Viscosity (at 23° C.)” value was 7 mPa · s.

Turning to `CCCCCCCCCCCCCC(=O)OC(C)C` [Ester oil b5, Isopropyl myristate], the “Viscosity (at 23° C.)” value is 5 mPa · s.

For the molecule `CCCCCCCCCC(=O)OCC(C)(C)COC(=O)CCCCCCCCC` [Ester oil b6, Neopentyl glycol dicaprate], the “Viscosity (at 23° C.)” value is recorded as 15 mPa · s.

Turning to `CCCCCCCCCCCCCCCCOC(C)CC(C)C` (centres unmarked) [Ether oil c1, Cetyl-1,3-dimethylbutyl ether], the “Viscosity (at 23° C.)” value is given as 7 mPa · s.

For the molecule `CCCCCCCCCCC(CO)CCCCCCCC` (centres unmarked) [Higher alcohol e1, 2-Octyl dodecanol], the “Viscosity (at 23° C.)” value was 74 mPa · s.

`CC(C)=CCC/C(C)=C/CC/C(C)=C/CC/C=C(\C)CC/C=C(\C)CCC=C(C)C` [Hydrocarbon oil d3, Squalene]: the “Viscosity (at 23° C.)” value came out at 42 mPa · s.

In the case of `OCCCO` [Polyhydric alcohol fx1, 1,3-Propanediol, reference compound], the “Viscosity (at 23° C.)” value was 53 mPa · s.

On to “Polyglyceryl diisostearate [Ester oil bx1]”, for which the “Viscosity (at 23° C.)” value is 1000 mPa · s.

Tested on in another data set: not listed separately
Description: Measurement of surface tension (Wilhelmy method, Tensiometer K100). The format is physicochemical. Conditions: static surface tension, platinum plate. On the procedure:
(1) Measurement of Surface Tension
An automatic surface tensiometer: Tensiometer K100 (manufactured by KRUSS GmbH) was used to measure the static surface tension by the Wilhelmy method using a platinum plate in an environment at 25° C.
As to `CC(C)CCCCCCOC(=O)CCCCCC(C)C` [Ester oil b1, Isononyl isononanoate], the “Surface tension (at 25° C.)” value worked out at 25 mN/m.

`CC(C)CCCCCCCCCCOC(=O)CCCCCC(C)C` [Ester oil b2, Isotridecyl isononanoate]: the “Surface tension (at 25° C.)” value worked out at 28 mN/m.

As to `CCCCC(CC)C(=O)OCC(C)(C)COC(=O)C(CC)CCCC` (centres unmarked) [Ester oil b3, Neopentyl glycol di-2-ethylhexanoate], the “Surface tension (at 25° C.)” value is listed as 28 mN/m.

Turning to `CCCCCCCCCCCCCCCC(=O)OC(C)C` [Ester oil b4, Isopropyl palmitate], the “Surface tension (at 25° C.)” value worked out at 27 mN/m.

With `CCCCCCCCCCCCCC(=O)OC(C)C` [Ester oil b5, Isopropyl myristate], the “Surface tension (at 25° C.)” value turned out to be 28 mN/m.

As to `CCCCCCCCCC(=O)OCC(C)(C)COC(=O)CCCCCCCCC` [Ester oil b6, Neopentyl glycol dicaprate], the “Surface tension (at 25° C.)” value came to 28 mN/m.

Take `CCCCCCCCCCCCCCCCOC(C)CC(C)C` (centres unmarked) [Ether oil c1, Cetyl-1,3-dimethylbutyl ether]: the “Surface tension (at 25° C.)” value came to 28 mN/m.

As to `CCCCCCCCCCC(CO)CCCCCCCC` (centres unmarked) [Higher alcohol e1, 2-Octyl dodecanol], the “Surface tension (at 25° C.)” value was found to be 29 mN/m.

Take `CC(C)=CCC/C(C)=C/CC/C(C)=C/CC/C=C(\C)CC/C=C(\C)CCC=C(C)C` [Hydrocarbon oil d3, Squalene]: the “Surface tension (at 25° C.)” value was 30 mN/m.

Take `OCCCO` [Polyhydric alcohol fx1, 1,3-Propanediol, reference compound]: the “Surface tension (at 25° C.)” value amounted to 48 mN/m.

In the case of `OCC(O)CO` [Polyhydric alcohol fx2, Glycerin, reference compound], the “Surface tension (at 25° C.)” value is 65 mN/m.

For the molecule “Polyglyceryl diisostearate [Ester oil bx1]”, the “Surface tension (at 25° C.)” value was 27 mN/m.

The subject of another data set is pests.
Assay: not given
Conditions: content in the pest repellent composition; existing pest repellents; cited from earlier work.
As to `CCN(CC)C(=O)c1cccc(C)c1` [DEET, N,N-diethyl-m-toluamide], the effective amount was no less than 4 % by mass.

As to `CCC(C)OC(=O)N1CCCCC1CCO` (centres unmarked) [Icaridin], the effective amount is no less than 5 % by mass.

`CC(C)=CCCC(C)CCO` (centres unmarked) [citronellol]: the effective amount is recorded as no less than 10 % by mass.

The next data set deals with Aedes albopictus. Description: Mosquito landing rate on replica skin substrate applied with repellent. The format is in vivo. The following applies: coverage 0.25 mg/cm^2 on polyurethane replica skin substrate; lower = better repellent effect. On the procedure: (3) Mosquito Landing Rate
The repellent effect of the pest repellent was evaluated in terms of a mosquito landing rate.
(3-1) Preparation of Aedes albopictus
Female adults of Aedes albopictus were purchased from Mostop Inc. The adults were bred in a room at 28° C. and a relative humidity of 70% RH with a 12-hour light/dark cycle after delivery and appropriately used for tests. During breeding of mosquitoes, a 3% by mass sucrose aqueous solution was given as a feed.
(3-3) Calculation of Mosquito Landing Rate
The mosquito landing rate was determined by applying a repellent onto the aforementioned replica skin substrate in the manner as mentioned below to form a substrate surface, counting the number of mosquitoes landed on the substrate surface, and calculating the mosquito landing rate on the applied surface. This replica skin substrate is a disk having a diameter of 5 cm. Here, the term “landed” means that the mosquito stayed on the replica skin substrate for at least one second.
Four replica skin substrates were prepared, two of which were uniformly applied with a repellent with a fingertip wearing a rubber glove, and the other two were not applied with the repellent. Thereafter, the four substrates were vertically mounted in a glass box having a length, a width, and a height of about 6 cm on each side, such that the applied surface was located inside the boxy. This box has a circular hole with a diameter of 4 cm in the vertical and horizontal directions when viewed from the top, and by setting the aforementioned substrate, a part of the inner wall surface of the box can be made as the substrate surface. Two adjacent surfaces among the four surfaces of the inner wall of the box were set as substrates onto which the repellent was applied.
Four mosquitoes were enclosed in the glass-made box, and a shock was applied to force the mosquitoes to fly, thereby recording on what surface they first landed within 10 seconds. This was repeated 20 times, and the mosquito landing rate on the applied surface was calculated by the following equation.
Mosquito landing rate on applied surface (%)={(Number of mosquitoes landed on two surfaces of replica skin substrates applied with repellent)/(Number of mosquitoes landed on any of four surfaces of replica skin substrates)}×100
In the case of repeating the aforementioned test, fresh unused mosquitoes were used for every test, and the landing rate was calculated as an average.
It is expressed that as the landing rate is lower, the staying of mosquitoes can be suppressed, and the repellent effect is excellent.
In Comparative Example 2, a frosted glass-made substrate (Tempax #240, manufactured by Cosmode Co., Ltd.) was used in place of the replica skin substrate.
The liquid oily component shown in Table 1 was prepared, and the liquid oily component shown in Table 2 was uniformly applied onto the aforementioned replica skin substrate at a coverage of 0.5 mg/cm^2, and the mosquito landing rate was calculated.
In Example 1, each of the liquid oily components shown in Table 3 was uniformly applied onto the replica shin substrate at a coverage of 0.25 mg/cm^2, and the mosquito landing rate was calculated.
Regarding `CCCCCCCCCCCCCC(=O)OC(C)C` [Ester oil b5, Isopropyl myristate], the “Landing rate (at 0.25 mg/cm^2)” value was determined as 11%.

Turning to `CCCCCCCCCCC(CO)CCCCCCCC` (centres unmarked) [Higher alcohol e1, 2-Octyl dodecanol], the “Landing rate (at 0.25 mg/cm^2)” value is on record as 16%.

Still in this data set, the particulars now being: coverage 0.5 mg/cm^2 on frosted glass-made substrate (Tempax #240) in place of replica skin substrate.
Regarding `OCCCO` [Polyhydric alcohol fx1, 1,3-Propanediol, reference compound], the “Landing rate (at 0.5 mg/cm^2)” value is reported as 39%.

The data set is the same for the next values; noted with them: coverage 0.5 mg/cm^2 on polyurethane replica skin substrate; stay of at least 1 second counts as landed; lower = better repellent effect.
Take `CC(C)CCCCCCOC(=O)CCCCCC(C)C` [Ester oil b1, Isononyl isononanoate]: the “Landing rate (at 0.5 mg/cm^2)” value came to 22%.

On to `CC(C)CCCCCCCCCCOC(=O)CCCCCC(C)C` [Ester oil b2, Isotridecyl isononanoate], for which the “Landing rate (at 0.5 mg/cm^2)” value was found to be 15%.

With `CCCCC(CC)C(=O)OCC(C)(C)COC(=O)C(CC)CCCC` (centres unmarked) [Ester oil b3, Neopentyl glycol di-2-ethylhexanoate], the “Landing rate (at 0.5 mg/cm^2)” value is recorded as 12%.

For the molecule `CCCCCCCCCCCCCCCC(=O)OC(C)C` [Ester oil b4, Isopropyl palmitate], the “Landing rate (at 0.5 mg/cm^2)” value stood at 19%.

As to `CCCCCCCCCCCCCC(=O)OC(C)C` [Ester oil b5, Isopropyl myristate], the “Landing rate (at 0.5 mg/cm^2)” value amounted to 11%.

Consider `CCCCCCCCCC(=O)OCC(C)(C)COC(=O)CCCCCCCCC` [Ester oil b6, Neopentyl glycol dicaprate], for which the “Landing rate (at 0.5 mg/cm^2)” value worked out at 20%.

Regarding `CCCCCCCCCCCCCCCCOC(C)CC(C)C` (centres unmarked) [Ether oil c1, Cetyl-1,3-dimethylbutyl ether], the “Landing rate (at 0.5 mg/cm^2)” value came out at 13%.

Turning to `CC(C)=CCC/C(C)=C/CC/C(C)=C/CC/C=C(\C)CC/C=C(\C)CCC=C(C)C` [Hydrocarbon oil d3, Squalene], the “Landing rate (at 0.5 mg/cm^2)” value stood at 21%.

In the case of “Polyglyceryl diisostearate [Ester oil bx1]”, the “Landing rate (at 0.5 mg/cm^2)” value is 21%.
